Patent publication US20260248763A1 (BIO GENUINE (SHANGHAI) BIOTECH CO., LTD, priority 2023, published 2026)

What was measured:
OTR = biological target: T1, OTR (Homo sapiens, UniProt P30559); assay: Ca2+ mobilization in cells stably expressing OTR (FLIPR, antagonist mode); format: cell-based; details: OTR/HEK293 stably transfected cell line
T1 construct: expressed in transfected cells; host or cells: OTR/HEK293 stably transfected cell line
T1 sequence (P30559 1-389): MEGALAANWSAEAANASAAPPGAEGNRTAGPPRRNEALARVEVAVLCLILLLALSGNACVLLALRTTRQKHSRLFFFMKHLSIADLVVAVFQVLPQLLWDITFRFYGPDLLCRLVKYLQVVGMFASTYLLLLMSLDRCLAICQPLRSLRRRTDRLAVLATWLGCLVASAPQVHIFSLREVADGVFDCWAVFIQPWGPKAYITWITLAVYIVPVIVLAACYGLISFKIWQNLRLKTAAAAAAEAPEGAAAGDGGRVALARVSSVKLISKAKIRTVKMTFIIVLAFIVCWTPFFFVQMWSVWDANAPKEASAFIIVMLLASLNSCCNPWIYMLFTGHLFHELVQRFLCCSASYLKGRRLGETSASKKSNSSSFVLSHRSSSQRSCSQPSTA
Procedure, shortened: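 OTR/HEK293 stable cells (20,000 per well) were loaded with Fluo-4 Direct plus probenecid. Cells were pre-exposed to 10-point, 3-fold compound dilutions before agonist challenge at EC80, determined beforehand per cell line. FLIPR calcium fluorescence (Max-Min) was fitted in Prism.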

V1aR = biological target: T2, V1aR (Homo sapiens, UniProt P37288); assay: Ca2+ mobilization in cells stably expressing V1aR (FLIPR, antagonist mode); format: cell-based; details: V1a-CHO stably transfected cell line
T2 construct: expressed in transfected cells; host or cells: V1a-CHO stably transfected cell line
Description: Test Example 2. Determination of the Effect of the Compound of the Present Disclosure on Ca^2+ Mobilization in Cells Stably Expressing V1aR
To measure the antagonistic effect of the compound of the present disclosure on V1aR activity expressed in the V1a-CHO stably transfected cell line.
• F-12 (Hyclone, SH30026.01) • FLIPR CALCIUM 6 ASSAY KIT (Molecul Device, R8191) • Fetal Bovine Serum (FBS) (AusGeneX, FBS500-S) • Hygromycin B (Solarbio, H8080-1g) • DMSO (Sigma, D4540) • HBSS (Gibco 14025-092) • Probenecid (MCE, HY—B0545) • 0.36 mL 96 Round V-bottom Deep Well Plates for Laboratory (Biaosen P-0.36-BSA-96) • 384-well conical bottom polypropylene plate (Nunc, 264573) • Corning® 384-well Flat Clear Bottom Black Polystyrene TC-treated Microplates (Corning 3764)
• Biological safety cabinet (ECSO, AC2-6S1-TC) • Carbon dioxide cell incubator (ECSO, CCI-170B-8) • Inverted microscope (Olympus, CKX53) • Microplate low-speed centrifuge (Xiangzhi, TD5B) • FLIPR® Penta (Molecul Device, 5.0)
• 1. Cell plating: V1a-CHO cells were digested and harvested, resuspended and counted, and then inoculated into a 384-well cell plate at a density of: 1.2×10^4 cells/25 μL/well. The cell plate was then incubated in an incubator at 37° C. with 5% CO2 for about 16-20 h. • 2. The next day: after preparing Assay Buffer, 20× Component A was thawed to room temperature, diluted with Assay buffer to 1× loading buffer, and placed at room temperature for later use. • 3. The medium was removed from the cell plate, and 40 μL of 1× loading buffer was quickly added to each well. After centrifugation, the cell plate was incubated at 37° C. in the dark for 120 minutes. • 4. The serially diluted positive compound, serially diluted test compound, and agonist working solution were formulated. After mixing the serially diluted positive compound/serially diluted test compound with the agonist at a 1:1 ratio, 20 μL per well was transferred to a 384-well compound source plate. • 5. The cell plate, agonist source plate, and pipette tips were placed into their respective positions in the FLIPR instrument. Using FLIPR Tetra, 10 μL of the diluted agonist from Step 4 was added to each test well, and the data were collected at a wavelength of 515 nm-575 nm. • 6. The signal values were plotted against the compound concentrations, and the curve fitting and IC50 calculation were performed using the nonlinear regression method of GraphPad Prism software.

T2 sequence (P37288 whole entry, species assumed): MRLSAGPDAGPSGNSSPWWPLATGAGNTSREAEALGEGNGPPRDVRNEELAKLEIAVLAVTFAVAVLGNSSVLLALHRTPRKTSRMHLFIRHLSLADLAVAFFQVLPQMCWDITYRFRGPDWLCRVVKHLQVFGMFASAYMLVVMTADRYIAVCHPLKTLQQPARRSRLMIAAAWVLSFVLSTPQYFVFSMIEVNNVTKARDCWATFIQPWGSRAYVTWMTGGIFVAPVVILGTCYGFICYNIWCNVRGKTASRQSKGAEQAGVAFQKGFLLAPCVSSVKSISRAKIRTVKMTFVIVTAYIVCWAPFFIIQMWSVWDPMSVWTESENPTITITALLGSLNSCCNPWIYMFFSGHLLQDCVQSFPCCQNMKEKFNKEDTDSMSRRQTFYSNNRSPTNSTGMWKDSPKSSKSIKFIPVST

| IC50 (OTR) | IC50 (V1aR) | SMILES |
| --- | --- | --- |
| 5.32 nM | 1610 nM | CO/N=C1/C[C@@H](CO)N(C(=O)c2ccc(-c3cccc(C#N)c3Cl)c3c2OCCO3)C1 [Example C0154, (S,Z)-2-Chloro-3-(8-(2-(hydroxymethyl)-4-(methoxyimino)pyrrolidine-1-carbonyl)-2,3-dihydrobenzo[b][1,4]dioxin-5-yl)benzonitrile] |
| 10.6 nM | 2740 nM | CO/N=C1/C[C@@H](CO)N(C(=O)c2ccc(-c3cccc(C)c3C)c3c2OCO3)C1 [Example C0062, (S, Z)-(7-(2,3-Dimethylphenyl)benzo[d][1,3]dioxol-4-yl)(2-(hydroxymethyl)-4-(methoxyimino)pyrrolidin-1-yl)methanone] |
| 78.5 nM | 5510 nM | CO/N=C1/C[C@@H](CO)N(C(=O)c2ccc(-c3ccccc3C)cc2C)C1 [Example C0044, (S, Z)-(2′,3-Dimethyl-[1,1′-biphenyl]-4-yl)(2-(hydroxymethyl)-4-(methoxyimino)pyrrolidin-1-yl)methanone] |
| 10.8 nM | 1550 nM | CO/N=C1/C[C@@H](CO)N(C(=O)c2ccc(-c3cccc(C#N)c3C)c(OC)c2)C1 [Example A0242, (S,Z)-4′-(2-(Hydroxymethyl)-4-(methoxyimino)pyrrolidine-1-carbonyl)-2′-methoxy-2-methyl-[1,1′-biphenyl]-3-carbonitrile] |
| 12.6 nM | 2350 nM | CO/N=C1/C[C@@H]([C@H](C)O)N(C(=O)c2ccc(-c3cccc(C#N)c3C)cc2)C1 (single isomer, unassigned) [Example C0111] |
| 27.7 nM | 930 nM | CO/N=C1/C[C@@H](CO)N(C(=O)c2ccc(-c3cccc(C(F)F)c3C)cc2)C1 [Example C0079, (S, Z)-(3′-(Difluoromethyl)-2′-methyl-[1,1′-biphenyl]-4-yl)(2-(hydroxymethyl)-4-(methoxyimino)pyrrolidin-1-yl)methanone] |
| 74 nM | 862 nM | CO/N=C1\CN(C(=O)c2ccc(-c3ccccc3C)cc2)[C@](C)(CO)C1 [Example C0021, (S, Z)-(2-(Hydroxymethyl)-4-(methoxyimino)-2-methylpyrrolidin-1-yl)(2′-methyl-[1,1′-biphenyl]-4-yl)methanone] |
| 58.7 nM | 11200 nM | CO/N=C1/C[C@@H](CO)N(C(=O)c2ccc(-c3cccc(C#N)c3C)c(OC)n2)C1 [Example A0215, 3-(6-[(2S, 4Z)-2-(Hydroxymethyl)-4-(methoxyimino)pyrrolidine-1-carbonyl]-2-methoxypyridin-3-yl)-2-methylbenzonitrile] |
| 49.3 nM | 1750 nM | CO/N=C1/C[C@@H](CO)N(C(=O)c2cnc(-c3cccc(Cl)c3C)cn2)C1 [Example C0041, (S, Z)-(5-(3-Chloro-2-methylphenyl)pyrazin-2-yl)(2-(hydroxymethyl)-4-(methoxyimino)pyrrolidin-1-yl)methanone] |
| 32.1 nM | 790 nM | CO/N=C1/C[C@@H](CO)N(C(=O)c2ccc(-c3cccc(C)c3C)cc2)C1 [Example C0036, (S,Z)-(2′,3′-Dimethyl-[1,1′-biphenyl]-4-yl)(2-(hydroxymethyl)-4-(methoxyimino)pyrrolidin-1-yl)methanone] |
| 20.6 nM | 1870 nM | CO/N=C1/C[C@@H](C(C)(C)O)N(C(=O)c2ccc(-c3cccc(C#N)c3C)cc2)C1 [Example C0164, (S,Z)-4′-(2-(2-Hydroxypropan-2-yl)-4-(methoxyimino)pyrrolidine-1-carbonyl)-2-methyl-[1,1′-biphenyl]-3-carbonitrile] |
| 8.19 nM | 2350 nM | CO/N=C1/C[C@@H](CO)N(C(=O)c2ccc(-c3cccc(C#N)c3C)c3c2OCCO3)C1 [Example C0133, (S,Z)-3-(8-(2-(Hydroxymethyl)-4-(methoxyimino)pyrrolidine-1-carbonyl)-2,3-dihydrobenzo[b][1,4]dioxin-5-yl)-2-methylbenzonitrile] |
| 42.2 nM | 5030 nM | CO/N=C1/C[C@@H](CO)N(C(=O)c2ccc(-c3cccc(C)c3C)c(OC)n2)C1 [Example C0073, (S, Z)-(5-(2,3-Dimethylphenyl)-6-methoxypyridin-2-yl)(2-(hydroxymethyl)-4-(methoxyimino)pyrrolidin-1-yl)methanone] |
| 119 nM | 6740 nM | CO/N=C1/C[C@@H](CO)N(C(=O)c2ccc(-c3cccc(C)c3C)c(C(=O)NC3COC3)c2)C1 [Example A0157, (S, Z)-4-(2-(Hydroxymethyl)-4-(methoxyimino)pyrrolidine-1-carbonyl)-2′, 3′-dimethyl-N-(oxetan-3-yl)-[1,1′-biphenyl]-2-carboxamide] |
| 16.8 nM | 1020 nM | COCCOc1cc(C(=O)N2C/C(=N\OC)C[C@H]2CO)ccc1-c1cccc(C#N)c1C [Example A0191, (S, Z)-4′-(2-(Hydroxymethyl)-4-(methoxyimino)pyrrolidine-1-carbonyl)-2′-(2-methoxyethoxy)-2-methyl-[1, 1′-biphenyl]-3-carbonitrile] |
| 16 nM | 3500 nM | CO/N=C1/C[C@@H](CO)N(C(=O)c2ccc(-c3cccc(C)c3C)cc2C)C1 [Example C0045, (S, Z)-(2-(Hydroxymethyl)-4-(methoxyimino)pyrrolidin-1-yl)(3-methyl-2′,3′-dimethyl-[1,1′-biphenyl]-4-yl)methanone] |
| 31.5 nM | 587 nM | CO/N=C1/C[C@@H](CO)N(C(=O)c2ccc(-c3cccc(C#N)c3C)c3c2OCCN3C)C1 [Example A0162] |
| 72.9 nM | 2160 nM | CO/N=C1/C[C@@H](CO)N(C(=O)c2ccc(-c3cccc(OC)c3C)cc2)C1 [Example C0066, (S, Z)-(2-(Hydroxymethyl)-4-(methoxyimino)pyrrolidin-1-yl)(3′-methoxy-2′-methyl-[1,1′-biphenyl]-4-yl)methanone] |
| 81.2 nM | 661 nM | CO/N=C1\C[C@@H](CO)N(C(=O)c2ccc(-c3cccc(C)c3C)cc2)C1 [Example C0035, (S,E)-(2′,3′-Dimethyl-[1,1′-biphenyl]-4-yl)(2-(hydroxymethyl)-4-(methoxyimino)pyrrolidin-1-yl)methanone] |
| 99.8 nM | 2390 nM | CO/N=C1/C[C@@H](CO)N(C(=O)c2cnc(-c3cccc(C)c3C)cn2)C1 [Example A0061, (S, Z)-(5-(2,3-Dimethylphenyl)pyrazin-2-yl)(2-(hydroxymethyl)-4-(methoxyimino)pyrrolidin-1-yl)methanone] |
| 36.1 nM | 8770 nM | CO/N=C1/C[C@@H](CO)N(C(=O)c2ccc(-c3cccc(C#N)c3C)c(C#N)c2)C1 [Example A0173, 2-(3-Cyano-2-methylphenyl)-5-[(2S, 4Z)-2-(hydroxymethyl)-4-(methoxyimino)pyrrolidine-1-carbonyl]benzonitrile] |
| 20.3 nM | 6130 nM | CO/N=C1/C[C@@H](CO)N(C(=O)c2ccc(-c3cccc(C#N)c3C)cc2C)C1 [Example A0241, 3-(4-[(2S,4Z)-2-(Hydroxymethyl)-4-(methoxyimino)pyrrolidine-1-carbonyl]-3-methylphenyl)-2-methylbenzonitrile] |
| 17.2 nM | 520 nM | CO/N=C1/C[C@@H](CO)N(C(=O)c2ccc(-c3cccc(C#N)c3C)c(F)c2)C1 [Example C0158, (S,Z)-2′-Fluoro-4′-(2-(hydroxymethyl)-4-(methoxyimino)pyrrolidine-1-carbonyl)-2-methyl-[1,1′-biphenyl]-3-carbonitrile] |
